Experimental data reported in patent US10633367B2, “Fluorine- and/or deuterium-containing compounds for treating non-small cell lung cancer and related diseases” (X-Cutag Therapeutics, Inc., priority 2017, dated 2020).

How the values were obtained:
[1] = system: NCI-H1975 NSCLC cells carrying activating EGFR T790M mutation; experiment: Cell viability of NCI-H1975 cells (CCK-8 assay); type: cell-based, human; details: 36 hour treatment, CCK-8, FIG. 13
Description: NCI-H1975 is a model human NSCLC cell line that expresses activating EGER-T790M mutant, resulting in uncontrolled cell proliferation. Efficient inhibition of EGFR tyrosine kinase activity by TKI can affect cell growth, causing cell death. Here the inventors studied the effect of F1-osimertinib on cell viability of NCI-H1975 cells by […] (Cell Counting Kit-8 (CCK-8), Bimake.com, Houston, Tex.). 4,000 exponentially growing cells in 100 ul culture media were seeded in triplicate into 96-well plates and cultured to 70-80% continency. Cells were treated with indicated concentration of F1-osimertinib for 36 hour. 10 ul/well CCK-8 were added and continuously incubated till the absorbance (OD) at 450 nm reaches 0.8 measured by a microplate reader. Medium only wells were served as blank control. The cell viability was calculated as follows: Cell viability (%)=[A(F1-osimertinib)−A(blank)]/[A(solvent)−A(blank)]×100%. A: OD value measured.

[2] = Co-incubation in dog plasma (ex-vivo stability, LC-MS/MS); type: in vitro ADME; details: beagle plasma, after incubating for two hours, co-incubated, FIG. 11
Description: (§1) Briefly, 40 μL of osimertinib was co-incubated with an equal volume of one of the compounds described in this invention at the same concentration in blank plasma (human, beagle dog, Sprague-Dawley rat or CD-1 mouse). The tubes were incubated in a dry bath incubator for six time points ranging from 0 to 120 minutes. At each time point, the plasma was crashed with 200 μL internal standard working solution in acetonitrile, then vortexes and centrifuged. A portion of the supernatant was then transferred to autosampler vials for injection into the LC-MS/MS system. Chromatographic retention of osimertinib and the compounds described in the invention was obtained on an ACE 3 C18, 2.1×50 min, 3.0 μm column (Aberdeen, Scotland) under gradient conditions with a flow rate of 0.3 mL/minute. Analytes were detected by multiple reaction monitoring using an MDS Sciex API 4000 mass spectrometer (Applied Biosystems/MDS Sciex, Concord, Ontario, Canada) in positive mode. Data was captured using Analyst®, Version 1.6.2 (Applied Biosystems/MDS Sciex, Foster City, Calif.) and then exported to Excel® (Microsoft, Seattle, Wash.) for further data reduction.

[3] = Co-incubation in mouse plasma (ex-vivo stability, LC-MS/MS); type: in vitro ADME, CD-1 mouse; details: after incubating for two hours, co-incubated, FIG. 12
Description: as §1

[4] = Co-incubation in human plasma (ex-vivo stability, LC-MS/MS); type: in vitro ADME; details: co-dosed with osimertinib at 1:1 ratio, 0 to 120 minutes, FIG. 9
Description: as §1

[5] = Co-incubation in rat plasma (ex-vivo stability, LC-MS/MS); type: in vitro ADME, Sprague-Dawley rat; details: after incubating for two hours, co-incubated, FIG. 10
Description: as §1

remaining percentage of the initial concentration [2]	remaining percentage [3] [%]	stability when incubated in human plasma [4]	remaining percentage of the initial concentration [5]	Structure (SMILES)	inhibition of NSCLC cell growth (cell viability) [1]
				C=C(F)C(=O)Nc1cc(Nc2nccc(-c3cn(C)c4ccccc34)n2)c(OC)cc1N(C)CCN(C)C [F1-osimertinib]	significant inhibition of NSCLC cell growth
				[2H]C([2H])([2H])n1cc(-c2ccnc(Nc3cc(NC(=O)C(=C)F)c(N(C)CCN(C)C)cc3OC)n2)c2ccccc21 [F1-D3-osimertinib]	significant inhibition of NSCLC cell growth
approximately 78%	92	decreased rapidly	around 35%	C=CC(=O)Nc1cc(Nc2nccc(-c3cn(C)c4ccccc34)n2)c(OC)cc1N(C)CCN(C)C [osimertinib, N-(2-{2-dimethylaminoethyl-methylamino}-4-methoxy-5-{[4-(1-methylindol-3-yl)pyrimidin-2-yl]amino}phenyl)prop-2-enamide]	
